Source: publication PMC3997483, “Aminostyrylbenzofuran Directly Reduces Oligomeric Amyloid-β and Reverses Cognitive Deficits in Alzheimer Transgenic Mice” (PLoS ONE, 2014)
In brackets after ≈: the same amount, converted by molar mass. Like-named read-outs stand apart in the source and are kept apart here.

Key:
Plasma stability = format: in vitro ADME; details: 37 °C
Description: Plasma stability studies Plasma stability of the KMS88009 was studied in human, dog, rat and mouse plasma. Each plasma from different species was diluted to 5-fold with 0.05 M phosphate buffered saline (PBS, pH 7.4 at 37 °C). We added KMS88009 to 1 mL of preheated plasma solution to yield a final concentration of 1 μM. The assay was performed in a shaking water bath at 37 °C and conducted in triplicate. Samples (50 μL) were taken at 0, 0.5, 1, 2 and 6 hr and added to 10 μL of 0.05% formic acid. The samples were subjected to vortex mixing for 1 min and centrifuged at 4 °C for 20 min at 14,000 rpm. The clear supernatants were analyzed by liquid chromatography/mass/mass spectrometry (LC-MS/MS). Values are expressed as the mean ± SD of 2 independent experiments. Stability is expressed as the percentage of remaining compound in % relative to the start concentration set to 100%.

APP/PS1 TG mice = assay: Y-maze, prophylactic trial; format: in vivo, mouse; details: 5 to 12 months of age
[1] = Stability in PBS buffer (plasma stability study); format: in vitro ADME; details: 37 °C
Solubility studies = format: physicochemical
Description: Solubility studies Solubility of KMS88009 in distilled water (DW), simulated gastric fluid (SGF, pH 1.2), simulated intestinal fluid (SIF, pH 6.8) and DMSO/tween-20/saline was determined. Excess amounts of KMS88009 were placed in screw-capped vials containing 2 mL of DW, SGF, SIF and DMSO/tween-20/saline. Suspensions were vortexed for 2 min and kept in a shaking water-bath at 37 °C. We transferred 250 μL of each sample to the filter insert of centrifuge tubes. After centrifugation at 16,000 rpm for 15 min, the filtrates of DW, SGF and SIF were analyzed by HPLC (Agilent 1200 series, USA). Values are expressed as the mean ± SD of 2 independent experiments.

## COc1ccc2cc(C=Cc3ccc(N(C)C)cc3)oc2c1 [KMS88009, 6-methoxy-2-(4-dimethylaminostyryl) benzofuran]
Plasma stability; dog plasma, 0.5 hr
  Parent compound remaining: 100.0%
Plasma stability; dog plasma, 1 hr
  Parent compound remaining: 100.0%
Plasma stability; dog plasma, 2 hr
  Parent compound remaining: 100.0%
Plasma stability; dog plasma, 6 hr
  Parent compound remaining: 100.0%
Plasma stability; human plasma, 0.5 hr
  Parent compound remaining: 100.0%
Plasma stability; human plasma, 1 hr
  Parent compound remaining: 100.0%
Plasma stability; human plasma, 2 hr
  Parent compound remaining: 82.0%
Plasma stability; human plasma, 6 hr
  Parent compound remaining: 100.0%
Plasma stability; mouse plasma, 0.5 hr
  Parent compound remaining: 100.0%
Plasma stability; mouse plasma, 1 hr
  Parent compound remaining: 100.0%
Plasma stability; mouse plasma, 2 hr
  Parent compound remaining: 100.0%
Plasma stability; mouse plasma, 6 hr
  Parent compound remaining: 100.0%
Plasma stability; rat plasma, 0.5 hr
  Parent compound remaining: 86.9%
Plasma stability; rat plasma, 1 hr
  Parent compound remaining: 93.7%
Plasma stability; rat plasma, 2 hr
  Parent compound remaining: 100.0%
Plasma stability; rat plasma, 6 hr
  Parent compound remaining: 100.0%
APP/PS1 TG mice; PO 10 mg/kg/day
  frequency of spontaneous alternation (Y-maze): 69.3%
APP/PS1 TG mice; PO 30 mg/kg/day
  frequency of spontaneous alternation (Y-maze): 68.5%
APP/PS1 TG mice; PO 100 mg/kg/day
  frequency of spontaneous alternation (Y-maze): 70.2%
[1]; 0.5 hr
  Parent compound remaining: 99.1%
[1]; 1 hr
  Parent compound remaining: 88.6%
[1]; 2 hr
  Parent compound remaining: 100.0%
[1]; 6 hr
  Parent compound remaining: 100.0%
Solubility studies; DMSO/tween-20/saline, read-out: Solubility
  solubility: 583 µg/mL (≈ 1990 µM)
Solubility studies; DW (distilled water), 37 °C
  solubility: 0.000 mg/kg
Solubility studies; SIF, pH 6.8, 37 °C
  solubility: 0.000 mg/kg
Solubility studies; simulated gastric fluid (SGF), SGF, pH 1.2, 37 °C, read-out: Solubility
  solubility: 4 µg/mL (≈ 13.6 µM)
